Key:
[1] = tested on: HT-29 cells; assay: HT-29 cell proliferation (XTT) after knock-down of KLF4 gene by siRNA; format: cell-based, human; conditions: HT-29, XTT
Description: Small interfering RNA (siRNA) transfection was performed as follows. Pre-designed MTF-1 siRNA (ID #115734) (Ambion, Austin, Tex.) was used to knockdown endogenous MTF-1 mRNA. Similarly, pre-designed KLF4 siRNA (ID #115492) (Ambion, Austin, Tex.) was used to knockdown endogenous KLF4 mRNA. A nonspecific, double-stranded RNA
was synthesized at Qiagen (Cambridge, Mass.) based on the sequence of an unrelated gene. HT-29 cells (3×10^5 cells in 35 mm-culture dishes) were transfected with indicated concentrations of siRNA or scrambled RNA control using Lipofectamine™ 2000 transfection reagent (Invitrogen) by following the manufacturer's instruction, for 6 hr. At the end of the incubation period, the transfection medium was supplemented with a complete growth medium and the cells were incubated at 37° C. for 24 hr before indicated experiments.

[2] = tested on: human colon adenocarcinoma cells HT-29; assay: Colon carcinoma HT-29 xenograft model, tumour growth; format: in vivo, CD-1 female nude mice
Description: The ability of compound 3 to inhibit colon tumour growth in vivo was tested as follows. CD-1 female nude mice (7 mice per treatment group, 6-7 weeks) were injected intraperitoneally with human colon adenocarcinoma cells HT-29 cells (3×10^6 cells in 0.1 ml PBS). Treatment of the mice with vehicle or 50 mg/kg/d of compound 3 was initiated 5 days post-inoculation (size of tumours=20-40 mm^3) for 7-day cycles of five days followed by a 2 day break for 5 weeks. The size of the tumours was measured over the course of the experiment using calipers, and the weight of the tumours was measured after the animals were sacrificed.
The ability of compounds 3, 5, and 7 to inhibit colon carcinoma cell growth in vivo was tested in the mouse xenograft model as described in Example 26. […]
The tumor regression efficacy of compound 3 was assessed in compound 3-treated HT-29-transplanted athymic mice (FIG. 54A), and correlated with gene expressions of MTF-1, KLF4 and Cyclin D1 in HT-29 xenograft tissues (FIG. 54B). […] The tumor size was measured during the course of treatment using calipers (FIG. 54A). […] The tumor tissues were excised, frozen immediately and stored at −80° C. until RNA extraction and gene expression was analyzed by RT-PCR (FIG. 54B). […]

[3] = tested on: MT-1 isolated from rabbit liver; assay: Chelation of zinc from metallothionein MT-1, PAR colorimetric zinc assay; format: biochemical; conditions: 25 μM MT, compound 0.15 to 60 μM, 15 min
From the text: Intracellular zinc exists as a labile pool, loosely bound to storage proteins metallothioneins (MT), which store up to 7 or 8 zinc per molecule. The labile zinc pool donates zinc to enzymes or transcription factors, which require reversible binding with zinc for their full activity (Tapiero and Tew (2003) Biomed Pharmacother 57(9): 399-411). The efficiency of compound 3 to remove zinc from MT was investigated. MT-1 isolated from rabbit liver, containing mainly MT-1a and MT-2e with ˜7 zinc per molecule in ≧95% of MT was purchased from Alexis Biochemicals (Lausen, Switzerland). The content of zinc in MT was measured in vitro using 4-(2-pyridylazo) resorcinol (PAR) colorimetric zinc assay as described in the preceding Examples. The change in absorbance of PAR after PAR-zinc ion complex formation was measured at 500 nm (Dinkova-Kostova et al., (2005) Biochemistry 44(18): 6889-6899). To determine chelation of zinc from MT-1 by compound 3 in vitro, MT-125 μM in […] volume of 0.2M Tris-HCl, pH 7.5 was added to 96-well plate. Compound 3 (0.15 to 60 μM) in 80% acetonitrile/20% DMSO was added to MT-1 for 15 min at room temperature. PAR (200 μM in 0.2M Tris-HCl, pH 7.5) was added and the color development of PAR-zinc complex was measured by a multi-well spectrophotometer at 500 nm as shown in FIG. 47.

[4] = tested on: p21 protein; assay: p21 protein in HT-29 total cell lysate, ELISA / Western blot; format: cell-based, human; conditions: HT-29, 1 μM
Description: The expressions of p21 gene and proteins were examined following treatment with compound 3. Gene expression of p21 in HT-29 cells treated with 1 μM compound 3 was determined at the indicated times as follows. Total RNA was extracted and gene expression level was determined by RT-PCR (FIG. 42A). The level of p21 protein in total cell lysate was measured by ELISA (FIG. 42B) as follows. HT-29 cells were treated with 1 μM compound 3 with and without 20 μM MG-132 (proteasome inhibitor) for indicated time.

[5] = tested on: Sp1; assay: Sp1 binding to Cyclin D1 promoter, ChIP, HT-29; format: cell-based, human; conditions: HT-29, ChIP
Description: Based on overlapping transcription factor binding sites on Cyclin D1 gene promoter region (FIG. 33A), increased binding of a negative regulator KLF4 may replace the binding of a positive regulator Sp1. In vivo KLF4 and Sp1 binding to Cyclin D1 promoter was shown by chromatin immuno-precipitation assay (ChIP) (FIG. 33B).
Chromatin immunoprecipitation (ChIP) was performed as follows. Cell lysates from HT-29 cells (5.5×10^5 cells in three 15 cm-culture plates in each experimental group) were prepared at the end of the indicated experiments, and ChIP assays were performed using anti-KLF4 and anti-Sp1 antibodies (Santa Cruz Biotechnology Inc.) and ChIP-ITTM kit (Active Motif, Carlsbad, Calif.) by following the manufacturer's instruction. The primers encompassing-231 to -92 region of Cyclin D1 promoter; 5′ primer (5′-CGGACTACAGGGGCAA-3′) [SEQ ID NO:1] and 3′ primer (5′-GCTCCAGGACTTTGCA-3′) [SEQ ID NO:2] were synthesized at Invitrogen.

Compound: Cc1[nH]c2ccccc2c1-c1nc2c3cccnc3c3ncccc3c2[nH]1 [Compound 3]
- cell growth inhibition after knock-down of KLF4 gene by siRNA [1]: loss of compound 3-mediated cell growth inhibition
- tumour growth (size and weight) ([2]; 50 mg/kg/d, five days on 2 off, 5 weeks): able to inhibit tumour growth
- tumor size ([2]; 100 mg/kg i.p., 5 days then 10 days interval, 2 cycles): Significant reduction in tumor size
- PAR absorbance of MT (removal of zinc from metallothionein) [3]: Dose-dependent decreases in PAR absorbance
- p21 protein level ([4]; with 20 μM MG-132 (proteasome inhibitor)): increased p21 protein level was detected
- p21 protein expression ([4]; without MG-132): comparable increase in p21 protein expression was not detected
- Sp1 binding to Cyclin D1 promoter [5]: decreased Sp1 binding

— patent publication US8148392B2, “2-indolyl imidazo [4,5-d] phenanthroline derivatives and their use in the treatment of cancer” (Lorus Therapeutics Inc., priority 2005, dated 2012)
